Data: ChEMBL document CHEMBL4665768, “Monacycliones G-K and ent-Gephyromycin A, Angucycline Derivatives from the Marine-Derived Streptomyces sp. HDN15129” (J Nat Prod, 2020)
Structures can show the parent of a compound that is named as a salt.

What was measured:
Bel-7402 = assay: Cytotoxicity against human Bel-7402 cells assessed as reduction in cell viability by SRB assay; format: functional, cell-based
HCT-116 = assay: Cytotoxicity against human HCT-116 cells assessed as reduction in cell viability by SRB assay; format: functional, cell-based
HL-60 = assay: Cytotoxicity against human HL-60 cells assessed as reduction in cell viability by MTT assay; format: functional, cell-based
U-87 MG = assay: Cytotoxicity against human U87 cells assessed as reduction in cell viability by SRB assay; format: functional, cell-based, U-87MG ATCC
K562 = assay: Cytotoxicity against human K562 cells assessed as reduction in cell viability by MTT assay; format: functional, cell-based
ASPC1 = assay: Cytotoxicity against human ASPC1 cells assessed as reduction in cell viability by SRB assay; format: functional, cell-based
PC-3 = assay: Cytotoxicity against human PC-3 cells assessed as reduction in cell viability by SRB assay; format: functional, cell-based
SH-SY5Y = assay: Cytotoxicity against human SH-SY5Y cells assessed as reduction in cell viability by SRB assay; format: functional, cell-based

Structure (SMILES)	IC50 (Bel-7402) [µM]	IC50 (HCT-116) [µM]	IC50 (HL-60) [µM]	IC50 (U-87 MG) [µM]	IC50 (K562) [µM]	IC50 (ASPC1) [µM]	IC50 (PC-3) [µM]	IC50 (SH-SY5Y) [µM]
CN[C@H]1CC[C@H](c2ccc3c(c2O)C(=O)c2cc(SC)c4cc(C)cc(O)c4c2C3=O)O[C@H]1C	> 10	> 10	7.6	> 10	> 10	> 10	> 10	> 10
CSc1cc2c(c3c1C[C@@](C)(O)CC3=O)C(=O)c1ccc([C@H]3CC[C@H](N(C)C)[C@H](C)O3)c(O)c1C2=O	10	10	3.5	7.9	7.1	7.1	7.7	4.3
COc1cccc2c1C(=O)c1c(O)c3c(c(O)c1C2=O)C[C@@](O)(C(=O)CO)C[C@@H]3O[C@H]1C[C@H](N)[C@H](O)[C@H](C)O1 [DOXORUBICIN HYDROCHLORIDE]	0.3			0.2		0.2	0.2	0.5
